From US11891387B2, “Monoacylglycerol lipase modulators” (Janssen Pharmaceutica NV, priority 2020, dated 2024) come the findings set out here.

The target in the test is human MGL from HeLa cells (Homo sapiens (Human), UniProt Q99685). Description: MGL in vitro activity assay: cleavage of [glycerol-1,3-3H]-oleyl glycerol, activated carbon filtration. It counts as biochemical. As to conditions: 300 nM [Glycerol-1,3-3H]-oleyl glycerol, endogenously expressed MGL from HeLa cells, one hour incubation. The method in brief:
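Endogenous human MGL from HeLa cells or homogenates was incubated with compound and 300 nM [glycerol-1,3-3H]-oleyl glycerol for one hour. Released [3H]-glycerol passing an activated carbon filter was counted as the measure of activity. Screening used 10 μM compound, with IC50 top concentration set empirically.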

Sequence of human MGL from HeLa cells (Q99685 whole entry): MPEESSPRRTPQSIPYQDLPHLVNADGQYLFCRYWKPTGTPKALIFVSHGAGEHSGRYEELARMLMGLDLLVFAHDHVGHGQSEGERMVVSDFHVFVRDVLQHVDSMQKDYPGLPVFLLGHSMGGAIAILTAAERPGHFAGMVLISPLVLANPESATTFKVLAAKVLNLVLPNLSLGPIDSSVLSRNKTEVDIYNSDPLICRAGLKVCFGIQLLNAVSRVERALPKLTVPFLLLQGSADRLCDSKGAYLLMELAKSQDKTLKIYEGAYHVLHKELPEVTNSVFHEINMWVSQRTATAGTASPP

With `C[C@H]1c2nn(C)c(-c3cc(C(F)(F)F)n(C)n3)c2CCN1C(=O)c1ccnc2c1cnn2C` [Example 118, (S)-(2,7-Dimethyl-3-(1-methyl-5-(trifluoromethyl)-1H-pyrazol-3-yl)-2,4,5,7-tetrahydro-6H-pyrazolo[3,4-c]pyridin-6-yl)(1-methyl-1H-pyrazolo[3,4-b]pyridin-4-yl)methanone], it took 47 nM to reach half-maximal inhibition (IC50).

As for `Cc1ccc2c(F)c(C(=O)N3CCc4c(nn(C)c4-c4cc(C(F)(F)F)nn4C)[C@@H]3C)ccc2n1` [Example 90, (S)-(2,7-dimethyl-3-(1-methyl-3-(trifluoromethyl)-1H-pyrazol-5-yl)-2,4,5,7-tetrahydro-6H-pyrazolo[3,4-c]pyridin-6-yl)(5-fluoro-2-methylquinolin-6-yl)methanone], inhibition was half-maximal at 230 nM (IC50).

In the case of `C[C@H]1c2nn(C)c(-c3cnn(C)c3C(F)(F)F)c2CCN1C(=O)c1cccc2cnn(C)c12` [Example 31, (S)-(2,7-Dimethyl-3-(1-methyl-5-(trifluoromethyl)-1H-pyrazol-4-yl)-2,4,5,7-tetrahydro-6H-pyrazolo[3,4-c]pyridin-6-yl)(1-methyl-1H-indazol-7-yl)methanone], the IC50 (commonly the concentration that inhibits the measured activity by half) was found to be 10000 nM.

On to `Cc1cccc2ncc(C(=O)N3CCc4c(nn(C)c4-c4cc(C(F)(F)F)nn4C)[C@@H]3C)n12` [Example 8, (S)-(2,7-Dimethyl-3-(1-methyl-3-(trifluoromethyl)-1H-pyrazol-5-yl)-2,4,5,7-tetrahydro-6H-pyrazolo[3,4-c]pyridin-6-yl)(5-methylimidazo[1,2-a]pyridin-3-yl)methanone], for which the IC50 was 8.9 nM.

For `C[C@H]1c2nn(C)c(-c3cc(C(F)(F)F)nn3C)c2CCN1C(=O)c1ccc2c(c1)OCCC2` [Example 55, (S)-Chroman-7-yl(2,7-dimethyl-3-(1-methyl-3-(trifluoromethyl)-1H-pyrazol-5-yl)-2,4,5,7-tetrahydro-6H-pyrazolo[3,4-c]pyridin-6-yl)methanone], half-maximal inhibition (IC50) was put at 110 nM.

Turning to `C[C@H]1c2nn(C)c(-c3cc(C(F)(F)F)n(C)n3)c2CCN1C(=O)c1ccc2ncccc2c1` [Example 63, (S)-(2,7-Dimethyl-3-(1-methyl-5-(trifluoromethyl)-1H-pyrazol-3-yl)-2,4,5,7-tetrahydro-6H-pyrazolo[3,4-c]pyridin-6-yl)(quinolin-6-yl)methanone], the IC50 was 63 nM.

The compound `Cc1cc(C(=O)N2CCc3c(nn(C)c3-c3cc(C(F)(F)F)n(C)n3)[C@@H]2C)cc(-n2nccn2)c1` [Example 50, (S)-(2,7-Dimethyl-3-(1-methyl-5-(trifluoromethyl)-1H-pyrazol-3-yl)-2,4,5,7-tetrahydro-6H-pyrazolo[3,4-c]pyridin-6-yl)(3-methyl-5-(2H-1,2,3-triazol-2-yl)phenyl)methanone] registered an IC50 of 23 nM.

On to `Cc1ccc2cc(C(=O)N3CCc4c(nn(C)c4-c4cc(C(F)(F)F)nn4C)[C@@H]3C)c(F)cc2n1` [Example 91, (S)-(2,7-Dimethyl-3-(1-methyl-3-(trifluoromethyl)-1H-pyrazol-5-yl)-2,4,5,7-tetrahydro-6H-pyrazolo[3,4-c]pyridin-6-yl)(7-fluoro-2-methylquinolin-6-yl)methanone], for which it took 210 nM to reach half-maximal inhibition (IC50).

With `Cn1nc(C(F)(F)F)cc1-c1c2c(nn1C)[C@@H]1CCC[C@H](C2)N1C(=O)c1n[nH]c2ncc(F)cc12` [Example 81, (5-Fluoro-1H-pyrazolo[3,4-b]pyridin-3-yl)((5R,9S)-2-methyl-3-(1-methyl-3-(trifluoromethyl)-1H-pyrazol-5-yl)-4,5,6,7,8,9-hexahydro-2H-5,9-epiminocycloocta[c]pyrazol-10-yl)methanone], the IC50 stood at 100 nM.

Compound `COc1cccc(C(=O)N2CCc3c(nn(C)c3-c3cc(C(F)(F)F)nn3C)[C@@H]2C)c1Cl` [Example 35, (S)-(2-Chloro-3-methoxyphenyl)(2,7-dimethyl-3-(1-methyl-3-(trifluoromethyl)-1H-pyrazol-5-yl)-2,4,5,7-tetrahydro-6H-pyrazolo[3,4-c]pyridin-6-yl)methanone] registered an IC50 of 25 nM.

The compound `C[C@H]1c2nn(C)c(-c3cc(C(F)(F)F)nn3C)c2CCN1C(=O)c1ccc(F)c2c1cnn2C` [Example 21, (S)-(2,7-Dimethyl-3-(1-methyl-3-(trifluoromethyl)-1H-pyrazol-5-yl)-2,4,5,7-tetrahydro-6H-pyrazolo[3,4-c]pyridin-6-yl)(7-fluoro-1-methyl-1H-indazol-4-yl)methanone] registered an IC50 of 5.6 nM.

Turning to `C[C@H]1c2nn(C)c(-c3cnn(C)c3C(F)(F)F)c2CCN1C(=O)c1ccnc2c1ccn2C` [Example 52, (S)-(2,7-Dimethyl-3-(1-methyl-5-(trifluoromethyl)-1H-pyrazol-4-yl)-2,4,5,7-tetrahydro-6H-pyrazolo[3,4-c]pyridin-6-yl)(1-methyl-1H-pyrrolo[2,3-b]pyridin-4-yl)methanone], the IC50 is 420 nM. This IC50 is about 75-fold higher than that of the compound before.

On to `C[C@H]1c2nn(C)c(-c3cc(C(F)(F)F)nn3C)c2CCN1C(=O)c1ccccc1C(F)(F)F` [Example 29, (S)-(2,7-Dimethyl-3-(1-methyl-3-(trifluoromethyl)-1H-pyrazol-5-yl)-2,4,5,7-tetrahydro-6H-pyrazolo[3,4-c]pyridin-6-yl)(2-(trifluoromethyl)phenyl)methanone], for which the IC50 amounted to 150 nM.

Take `C[C@H]1c2nn(C)c(-c3cc(C(F)(F)F)nn3C)c2CCN1C(=O)c1nn(C)c2ccccc12` [Example 6, (S)-(2,7-Dimethyl-3-(1-methyl-3-(trifluoromethyl)-1H-pyrazol-5-yl)-2,4,5,7-tetrahydro-6H-pyrazolo[3,4-c]pyridin-6-yl)(1-methyl-1H-indazol-3-yl)methanone]: it took 37 nM to reach half-maximal inhibition (IC50).

With `Cn1nc(C(F)(F)F)cc1-c1c2c(nn1C)[C@@H]1CCC[C@H](C2)N1C(=O)c1nn(C)c2ncccc12` [Example 85, (1-Methyl-1H-pyrazolo[3,4-b]pyridin-3-yl)((5R,9S)-2-methyl-3-(1-methyl-3-(trifluoromethyl)-1H-pyrazol-5-yl)-4,5,6,7,8,9-hexahydro-2H-5,9-epiminocycloocta[c]pyrazol-10-yl)methanone], the midpoint of inhibition, the IC50, lay at 64 nM.

In turn, `Cc1ccc2cc(C(=O)N3CCc4c(nn(C)c4-c4cc(C(F)(F)F)nn4C)[C@@H]3C)c(C)cc2n1` [Example 93, (S)-(2,7-Dimethyl-3-(1-methyl-3-(trifluoromethyl)-1H-pyrazol-5-yl)-2,4,5,7-tetrahydro-6H-pyrazolo[3,4-c]pyridin-6-yl)(2,7-dimethylquinolin-6-yl)methanone] gave an IC50 of 1210 nM.

The compound `COc1cccc(C(=O)N2CCc3c(nn(C)c3-c3cnn(C)c3C(F)(F)F)[C@@H]2C)c1Cl` [Example 51, (S)-(2-Chloro-3-methoxyphenyl)(2,7-dimethyl-3-(1-methyl-5-(trifluoromethyl)-1H-pyrazol-4-yl)-2,4,5,7-tetrahydro-6H-pyrazolo[3,4-c]pyridin-6-yl)methanone] had an IC50 of 890 nM.

For the compound `Cc1cc(C)c2cc(C(=O)N3CCc4c(nn(C)c4-c4cc(C(F)(F)F)nn4C)[C@@H]3C)ccc2n1` [Example 94, (S)-(2,7-Dimethyl-3-(1-methyl-3-(trifluoromethyl)-1H-pyrazol-5-yl)-2,4,5,7-tetrahydro-6H-pyrazolo[3,4-c]pyridin-6-yl)(2,4-dimethylquinolin-6-yl)methanone], inhibition was half-maximal at 39 nM (IC50).

Regarding `COc1cc(C)cc(C(=O)N2[C@@H]3CCC[C@H]2c2nn(C)c(-c4cc(C(F)(F)F)nn4C)c2C3)c1` (stereo in doubt) [Example 77, (3-Methoxy-5-methylphenyl)((5R,9S)-2-methyl-3-(1-methyl-3-(trifluoromethyl)-1H-pyrazol-5-yl)-4,5,6,7,8,9-hexahydro-2H-5,9-epiminocycloocta[c]pyrazol-10-yl)methanone], half-maximal inhibition (IC50) required 26 nM.

`C[C@H]1c2nn(C)c(-c3cc(C(F)(F)F)nn3C)c2CCN1C(=O)c1cnc2cc(F)cc(F)c2c1` [Example 18, (S)-(5,7-Difluoroquinolin-3-yl)(2,7-dimethyl-3-(1-methyl-3-(trifluoromethyl)-1H-pyrazol-5-yl)-2,4,5,7-tetrahydro-6H-pyrazolo[3,4-c]pyridin-6-yl)methanone]: the IC50 is 360 nM. This IC50 lies about 14-fold higher than the previous one.

Compound `Cc1nc2ccccc2cc1C(=O)N1CCc2c(nn(C)c2-c2cc(C(F)(F)F)nn2C)[C@@H]1C` [Example 13, (S)-(2,7-Dimethyl-3-(1-methyl-3-(trifluoromethyl)-1H-pyrazol-5-yl)-2,4,5,7-tetrahydro-6H-pyrazolo[3,4-c]pyridin-6-yl)(2-methylquinolin-3-yl)methanone] returned an IC50 of 220 nM.

As to `COc1ccc(C(=O)N2CCc3c(nn(C)c3-c3cc(C(F)(F)F)nn3C)[C@@H]2C)c(Cl)c1` [Example 42, (S)-(2-Chloro-4-methoxyphenyl)(2,7-dimethyl-3-(1-methyl-3-(trifluoromethyl)-1H-pyrazol-5-yl)-2,4,5,7-tetrahydro-6H-pyrazolo[3,4-c]pyridin-6-yl)methanone], the IC50 came to 100 nM.

For `COc1cccc(C(=O)N2CCc3c(nn(C)c3-c3c(C)cnn3C)[C@@H]2C)c1C` [Example 2, (S)-(3-(1,4-Dimethyl-1H-pyrazol-5-yl)-2,7-dimethyl-2,4,5,7-tetrahydro-6H-pyrazolo[3,4-c]pyridin-6-yl)(3-methoxy-2-methylphenyl)methanone], the IC50 is 10000 nM. Compared with the last compound, the IC50 is about 100-fold higher.

In turn, `COc1ccc2nc(C)cc(C(=O)N3CCc4c(nn(C)c4-c4cc(C(F)(F)F)nn4C)[C@@H]3C)c2c1` [Example 26, (S)-(2,7-Dimethyl-3-(1-methyl-3-(trifluoromethyl)-1H-pyrazol-5-yl)-2,4,5,7-tetrahydro-6H-pyrazolo[3,4-c]pyridin-6-yl)(6-methoxy-2-methylquinolin-4-yl)methanone] came in with an IC50 of 880 nM. Against the preceding compound, the IC50 is about 11-fold lower.

Compound `Cn1nc(C(F)(F)F)cc1-c1c2c(nn1C)[C@@H]1CCC[C@H](C2)N1C(=O)c1noc2ccccc12` [Example 84, Benzo[d]isoxazol-3-yl((5R,9S)-2-methyl-3-(1-methyl-3-(trifluoromethyl)-1H-pyrazol-5-yl)-4,5,6,7,8,9-hexahydro-2H-5,9-epiminocycloocta[c]pyrazol-10-yl)methanone] yielded an IC50 of 5.1 nM.
